Data published in paper PMC12888856 (Antimicrobial Agents and Chemotherapy, 2025).
Values joined by “and” are separate entries in the source; they are usually repeats but may differ in a detail not shown here. Identical values can stand only once. Like-named read-outs stand apart in the source and are kept apart here.

Legend:
[1] = system: A/Weiss/1943 (H1N1); test: microbe, parasite or virus in culture; assay type: cell-based, Influenza A virus
[2] = system: A/Puerto Rico/8/1934 (H1N1); test: microbe, parasite or virus in culture; assay type: cell-based, Influenza A virus
[3] = system: A/Hong Kong/8/1968 (H3N2); test: microbe, parasite or virus in culture; assay type: cell-based, Influenza A virus
[4] = system: A/Malaya/302/1954 (H1N1); test: microbe, parasite or virus in culture; assay type: cell-based, Influenza A virus
[5] = system: IAV H1N1 and H3N2 isolates; test: microbe, parasite or virus in culture; assay type: cell-based, Influenza A virus
[6] = system: A/Puerto Rico/8/1934 (H1N1); design: species or system BALB/c mice; conditions: mouse, in vivo
[7] = system: A/Puerto Rico/8/1934 (H1N1); design: species or system BALB/c mice; conditions: mouse, in vivo; remark: listed apart in the source
[8] = system: A/Brisbane/05/2018 (H1N1); test: microbe, parasite or virus in culture; assay type: cell-based; conditions: Influenza A virus, H1N1, MDCK
[9] = system: A/Michigan/45/2015 (H1N1); test: microbe, parasite or virus in culture; assay type: cell-based; conditions: Influenza A virus, H1N1, MDCK
[10] = system: A/California/07/2009 (H1N1); test: microbe, parasite or virus in culture; assay type: cell-based; conditions: Influenza A virus, H1N1, MDCK
[11] = system: A/Mexico/4108/2009 (H1N1); test: microbe, parasite or virus in culture; assay type: cell-based; conditions: Influenza A virus, H1N1, MDCK
[12] = system: A/New York/18/2009 (H1N1); test: microbe, parasite or virus in culture; assay type: cell-based; conditions: Influenza A virus, H1N1, MDCK
[13] = system: A/Wilson-Smith/1933 (H1N1); test: microbe, parasite or virus in culture; assay type: cell-based; conditions: Influenza A virus, H1N1, MDCK
[14] = system: A/WSN/1933 (H1N1); test: microbe, parasite or virus in culture; assay type: cell-based; conditions: Influenza A virus, MDCK
[15] = system: A/Kansas/14/2017 (H3N2); test: microbe, parasite or virus in culture; assay type: cell-based; conditions: Influenza A virus, H3N2, MDCK
[16] = system: A/Hong Kong/4801/2014 (H3N2); test: microbe, parasite or virus in culture; assay type: cell-based; conditions: Influenza A virus, H3N2, MDCK
[17] = system: A/California/2/2014 (H3N2); test: microbe, parasite or virus in culture; assay type: cell-based; conditions: Influenza A virus, H3N2, MDCK
[18] = system: A/Switzerland/971593/2013 (H3N2); test: microbe, parasite or virus in culture; assay type: cell-based; conditions: Influenza A virus, H3N2, MDCK
[19] = system: A/Perth/16/2009 (H3N2); test: microbe, parasite or virus in culture; assay type: cell-based; conditions: Influenza A virus, H3N2, MDCK
[20] = system: B/Florida/78/2015; test: microbe, parasite or virus in culture; assay type: cell-based; conditions: Influenza B virus, MDCK
[21] = system: B/Lee/1940; test: microbe, parasite or virus in culture; assay type: cell-based; conditions: Influenza B virus, MDCK
[22] = system: A/Vietnam/1203/2004 (H5N1); test: microbe, parasite or virus in culture; assay type: cell-based; conditions: Influenza A virus, H5N1, MDCK
[23] = system: A/Hong Kong/213/2003 (H5N1); test: microbe, parasite or virus in culture; assay type: cell-based; conditions: Influenza A virus, H5N1, MDCK
[24] = system: A/cattle/Texas/56283/2024 (H5N1); test: microbe, parasite or virus in culture; assay type: cell-based; conditions: Influenza A virus, H5N1, MDCK
[25] = system: A/Taiwan/1/2017 (H7N9); test: microbe, parasite or virus in culture; assay type: cell-based; conditions: Influenza A virus, H7N9, MDCK
[26] = system: A/Anhui/1/2013 (H7N9); test: microbe, parasite or virus in culture; assay type: cell-based; conditions: Influenza A virus, H7N9, MDCK
[27] = system: HPAI H5N1 and H7N9 isolates; test: microbe, parasite or virus in culture; assay type: cell-based; conditions: Influenza A virus, MDCK, read-out: EC50 values, range over isolates
[28] = system: A549 cells; conditions: human
[29] = system: HepG2 cells; conditions: human
[30] = Balb/c, mouse, in vivo
[31] = system: A/Puerto Rico/8/1934 (H1N1); conditions: mouse, in vivo; cited from earlier work
[32] = in vitro; conditions: dog
[33] = in vitro; conditions: human
[34] = mouse, in vivo; cited from earlier work
[35] = cited from earlier work

Q: Which EC50 ([1]; Influenza A virus, H1N1, MDCK) does the source give for `O=C1c2c(O)c(=O)ccn2N([C@@H]2c3ccccc3SCc3c2ccc(F)c3F)[C@@H]2COCCN12` [Baloxavir, baloxavir, reference compound] here?
A: 0.4 nM

Q: What about the EC50 ([2]; Influenza A virus, H1N1, MDCK) of the same molecule?
A: 0.57 nM

Q: What about the EC50 ([3]; read-out: EC50) of the same molecule?
A: 0.68 nM

Q: Which Fold shift [4] does the source give for `CCOC(=O)C1=C[C@@H](OC(CC)CC)[C@H](NC(C)=O)[C@@H](N)C1` [Oseltamivir, oseltamivir, reference compound] here?
A: 1.19

Q: And the EC50 ([1]; Influenza A virus, H1N1, MDCK)?
A: 1050 nM

Q: What about the EC50 ([2]; Influenza A virus, H1N1, MDCK) of the same molecule?
A: 970 nM

Q: And the Fold shift [3]?
A: 0.09

Q: And the EC50 ([3]; read-out: EC50)?
A: 90 nM

Q: What about the “shift in EC50 values relative to reference strain” value [5] of the same molecule?
A: < 2 fold

Q: What about the “body weight loss leading to euthanasia” value [6] of the same molecule?
A: > 25%

Q: What about the Lung viral load [7] of the same molecule?
A: comparable to the vehicle control

Q: Which EC50 [8] does the source give for `COC[C@@]1(C)COC[C@@H](COc2ccc(-c3cc(C(N)=O)c(O)nc3C(F)(F)F)cc2)O1` [VNT-101] here?
A: 6.55 nM

Q: What about the EC90 [8] of the same molecule?
A: 11.2 nM

Q: And the EC50 [9]?
A: 17.7 nM

Q: And the EC90 [9]?
A: 29.4 nM

Q: What about the EC50 [10] of the same molecule?
A: 8.39 nM

Q: And the EC90 [10]?
A: 19.2 nM

Q: What about the EC50 [11] of the same molecule?
A: 14.4 nM

Q: And the EC90 [11]?
A: 112 nM

Q: And the EC50 [12]?
A: 1.85 nM

Q: And the EC90 [12]?
A: 5.12 nM

Q: And the EC50 ([4]; Influenza A virus, H1N1, MDCK)?
A: > 50 µM

Q: And the EC90 ([4]; Influenza A virus, H1N1, MDCK)?
A: > 50 µM

Q: And the EC50 [1]?
A: 123 nM

Q: And the EC50 ([1]; Influenza A virus, H1N1, MDCK)?
A: 123 nM

Q: What about the EC90 ([1]; Influenza A virus, H1N1, MDCK) of the same molecule?
A: 210 nM

Q: What about the EC50 [2] of the same molecule?
A: 2.1 nM and 2 nM

Q: And the EC50 ([2]; Influenza A virus, H1N1, MDCK)?
A: 2.08 nM

Q: What about the EC90 ([2]; Influenza A virus, H1N1, MDCK) of the same molecule?
A: 3.22 nM

Q: What about the EC50 ([2]; Influenza A virus, H1N1, MDCK, read-out: mean EC50) of the same molecule?
A: 5 nM

Q: What about the EC50 [13] of the same molecule?
A: 26.3 nM

Q: What about the EC90 [13] of the same molecule?
A: 50.6 nM

Q: What about the EC50 [14] of the same molecule?
A: 115 nM

Q: What about the EC90 [14] of the same molecule?
A: 191 nM

Q: What about the EC50 [15] of the same molecule?
A: 3.14 nM

Q: What about the EC90 [15] of the same molecule?
A: 18 nM

Q: And the EC50 [16]?
A: 2.59 nM

Q: What about the EC90 [16] of the same molecule?
A: 3.71 nM

Q: And the EC50 [17]?
A: 2.2 nM

Q: What about the EC90 [17] of the same molecule?
A: 3.41 nM

Q: What about the EC50 [18] of the same molecule?
A: 2.19 nM

Q: What about the EC90 [18] of the same molecule?
A: 3.32 nM

Q: What about the EC50 [19] of the same molecule?
A: 4.05 nM

Q: And the EC90 [19]?
A: 5.68 nM

Q: And the EC50 ([3]; Influenza A virus, H3N2, MDCK)?
A: > 50000 nM

Q: And the EC90 ([3]; Influenza A virus, H3N2, MDCK)?
A: > 50 µM

Q: And the EC50 ([3]; read-out: EC50)?
A: > 50000 nM

Q: What about the EC50 [20] of the same molecule?
A: 43.7 µM

Q: And the EC90 [20]?
A: > 50 µM

Q: And the EC50 [21]?
A: > 47.5 µM

Q: And the EC90 [21]?
A: > 50 µM

Q: And the EC50 [22]?
A: 25 nM

Q: And the EC50 [23]?
A: 19 nM

Q: What about the EC50 [24] of the same molecule?
A: 65 nM

Q: And the EC50 [25]?
A: 69 nM

Q: What about the EC50 [26] of the same molecule?
A: 24 nM

Q: What about the EC50 ([5]; Influenza A virus, MDCK, read-out: mean EC50 values, range over isolates) of the same molecule?
A: 2 to 18 nM

Q: What about the EC50 [27] of the same molecule?
A: 19 to 69 nM

Q: And the “final mean body weight loss” value [6]?
A: 21.1%

Q: And the “maximum mean body weight loss” value [6]?
A: 24.4%

Q: What about the “maximum mean body weight loss” value ([6]; 30 mg/kg) of the same molecule?
A: 13.6% and 25.1%

Q: And the Survival ([6]; po, 100 mg/kg)?
A: 33%

Q: And the CC50 [28]?
A: > 100 µM

Q: And the CC50 [29]?
A: > 100 µM

Q: And the fAUC [30]?
A: 3.045 µM·h

Q: What about the fCmin [30] of the same molecule?
A: 0.10 µM

Q: What about the “protection from lethality, prophylaxis” value [31] of the same molecule?
A: protected mice from lethality

Q: And the CC50 [32]?
A: > 100 µM

Q: And the CC50 ([33]; Proliferating condition CC50)?
A: 72.8 µM

Q: What about the CC50 ([33]; Stationary condition CC50 (mean)) of the same molecule?
A: > 80.4 µM

Q: And the CC50 ([33]; Stationary condition CC50, individual runs)?
A: > 100 µM

Q: And the Cmin [34]?
A: 3.49 ± 1.35 µM

Q: What about the “percent plasma protein binding” value [35] of the same molecule?
A: 97.1%
